Experimental data reported in the supplement of paper PMC13380429.

Experiments:
Conditions in all cases: 72 h
[1] = tested on: Caco-2; experiment: cell viability relative to DMSO; higher = less toxic
[2] = tested on: Calu-3; experiment: as above
[3] = tested on: HepG2; experiment: as above
[4] = tested on: U2OS; experiment: as above
[5] = tested on: Vero E6; experiment: as above
[6] = tested on: Caco-2; experiment: relative viability EC50 (midpoint between 100% and the lowest measured viability); higher = less toxic
[7] = tested on: Calu-3; experiment: as above
[8] = tested on: HepG2; experiment: as above
[9] = tested on: U2OS; experiment: as above
[10] = tested on: Vero E6; experiment: as above
[11] = tested on: Caco-2; experiment: drug sensitivity score (DSS) for viability; higher = more toxic; extreme values may be limits of the assay
[12] = tested on: Calu-3; experiment: as above
[13] = tested on: HepG2; experiment: as above
[14] = tested on: U2OS; experiment: as above
[15] = tested on: Vero E6; experiment: as above

| Structure (SMILES) | cell viability ([1]; 1 nM) [%] | cell viability ([1]; 10 nM) [%] | cell viability ([1]; 100 nM) [%] | cell viability ([1]; 1000 nM) [%] | cell viability ([1]; 10000 nM) [%] | cell viability ([2]; 1 nM) [%] | cell viability ([2]; 10 nM) [%] | cell viability ([2]; 100 nM) [%] | cell viability ([2]; 1000 nM) [%] | cell viability ([2]; 10000 nM) [%] | cell viability ([3]; 1 nM) [%] | cell viability ([3]; 10 nM) [%] | cell viability ([3]; 100 nM) [%] | cell viability ([3]; 1000 nM) [%] | cell viability ([3]; 10000 nM) [%] | cell viability ([4]; 1 nM) [%] | cell viability ([4]; 10 nM) [%] | cell viability ([4]; 100 nM) [%] | cell viability ([4]; 1000 nM) [%] | cell viability ([4]; 10000 nM) [%] | cell viability ([5]; 1 nM) [%] | cell viability ([5]; 10 nM) [%] | cell viability ([5]; 100 nM) [%] | cell viability ([5]; 1000 nM) [%] | cell viability ([5]; 10000 nM) [%] | relative viability EC50 [6] [µM] | relative viability EC50 [7] [µM] | relative viability EC50 [8] [µM] | relative viability EC50 [9] [µM] | relative viability EC50 [10] [µM] | drug sensitivity score [11] | drug sensitivity score [12] | drug sensitivity score [13] | drug sensitivity score [14] | drug sensitivity score [15] |
| --- | --- | --- | --- | --- | --- | --- | --- | --- | --- | --- | --- | --- | --- | --- | --- | --- | --- | --- | --- | --- | --- | --- | --- | --- | --- | --- | --- | --- | --- | --- | --- | --- | --- | --- | --- |
| CN1CCc2cc(Cl)c(O)cc2[C@@H](c2ccccc2)C1 | 96.3 | 93.2 | 96.3 | 100 | 99.1 | 93.3 | 103 | 145 | 103 | 97.9 | 98.2 | 96.3 | 97.2 | 97.4 | 89.9 | 97.5 | 100 | 97.8 | 102 | 101 | 95.6 | 95 | 93.5 | 85.1 | 102 | > 10 | > 10 | > 10 | > 10 | > 10 | 0 | 0 | 0 | 0 | 0 |
| COc1ccc(S(=O)(=O)N2CCC[C@H]2C(=O)Nc2cc(C)cc(C)c2)cc1 | 91 | 93.1 | 98.1 | 102 | 90 |  |  |  |  |  | 101 | 99 | 113 | 104 | 104 | 103 | 100 | 98.1 | 102 | 99.2 | 102 | 102 | 107 | 98.4 | 99.7 | > 10 |  | > 10 | > 10 | > 10 | 0 |  | 0 | 0 | 0 |
| COc1cccc(OC)c1-c1ccc(C[C@H](NC(=O)c2c(Cl)cccc2Cl)C(=O)O)cc1 | 85.9 | 90.1 | 97.6 | 94.4 | 108 | 104 | 90.9 | 105 | 96.9 | 108 | 91.7 | 104 | 91 | 99.5 | 99.3 | 103 | 96.5 | 98.5 | 97.8 | 93.4 | 92.2 | 96.2 | 91.8 | 99.9 | 107 | > 10 | > 10 | > 10 | > 10 | > 10 | 0 | 0 | 0 | 0 | 0 |
| CSc1nc(NC2CCCC2)c([N+](=O)[O-])c(NC2CCCC2)n1 | 99 | 97 | 102 | 93.7 | 95.7 | 94.6 | 94.2 | 106 | 96.9 | 90.1 |  |  |  |  |  | 102 | 103 | 98.9 | 106 | 97.2 | 110 | 98.3 | 107 | 96.4 | 97 | > 10 | > 10 |  | > 10 | > 10 | 0 | 0 |  | 0 | 0 |
| Cc1cc(C(=O)Nc2cccc(C(=O)Nc3cccc(C(F)(F)F)c3)c2)on1 | 96.2 | 96.6 | 89.5 | 101 | 105 | 93.7 | 99.8 | 99.7 | 102 | 99.8 | 103 | 92.3 | 109 | 92.9 | 79.1 | 99 | 99.3 | 94.8 | 104 | 104 | 100 | 99.4 | 96.7 | 97.3 | 103 | > 10 | > 10 | > 10 | > 10 | > 10 | 0 | 0 | 1.5 | 0 | 0 |
| Cc1nc2c(OCc3ccccc3)cccn2c1CC#N | 97.9 | 91.1 | 107 | 100 | 93.6 |  |  |  |  |  | 106 | 107 | 95.9 | 106 | 97.5 | 98 | 102 | 100 | 95.3 | 98.2 | 92.4 | 93.3 | 95.8 | 95.1 | 103 | > 10 |  | > 10 | > 10 | > 10 | 0 |  | 0 | 0 | 0 |
| Cc1nnsc1C(=O)Nc1ccc(-n2nc(C(F)(F)F)cc2C(F)(F)F)cc1 | 93.4 | 83.8 | 105 | 87.2 | 85.1 | 101 | 98.4 | 95.2 | 104 | 99.9 | 94.5 | 98.8 | 105 | 107 | 90.9 | 99.9 | 97.9 | 100 | 100 | 99.1 | 95.9 | 96.2 | 94.7 | 97.8 | 95.6 | > 10 | > 10 | > 10 | > 10 | > 10 | 0.2 | 0 | 0 | 0 | 0 |
| OCc1ccc(CO)o1 [2,5-furandimethanol] | 89.2 | 100 | 84.4 | 95.1 | 103 |  |  |  |  |  | 98.6 | 97.3 | 108 | 106 | 100 | 95.4 | 104 | 96.6 | 98.5 | 99 | 97.1 | 94.3 | 88.2 | 94.4 | 107 | > 10 |  | > 10 | > 10 | > 10 | 0 |  | 0 | 0 | 0 |
| CO/N=C(\C(=O)N[C@@H]1C(=O)N2C(C(=O)O)=C(COC(N)=O)CS[C@H]12)c1ccco1 [CEFUROXIME SODIUM] | 106 | 90.6 | 98.6 | 107 | 99.4 |  |  |  |  |  | 97.7 | 109 | 95.4 | 97.8 | 103 | 97.3 | 95 | 96.8 | 98.7 | 103 | 101 | 95.6 | 97.6 | 95.1 | 110 | > 10 |  | > 10 | > 10 | > 10 | 0 |  | 0 | 0 | 0 |
| O=C(NC(NC(=S)Nc1ccc(F)c([N+](=O)[O-])c1)C(Cl)(Cl)Cl)C(c1ccccc1)c1ccccc1 (centres undefined) [CGK-733] | 99.2 | 106 | 93.9 | 90.3 | 10.7 | 97.8 | 103 | 96.6 | 104 | 52.8 | 95.8 | 94.2 | 104 | 96.7 | 7.9 | 94.4 | 103 | 96.4 | 95.9 | 27.4 | 98.8 | 100 | 101 | 97.8 | 20 | 2.26 |  | 2.91 | 2.72 | 2.96 | 6.6 | 2.2 | 5.6 | 4.6 | 4.7 |
| C#C[C@]1(O)CC[C@H]2[C@@H]3CCc4cc(O)ccc4[C@H]3CC[C@@]21C [ETHINYL ESTRADIOL] | 97.2 | 102 | 99.5 | 99.4 | 85.7 | 100 | 100 | 88.4 | 94.3 | 96.4 | 97.3 | 98 | 99.8 | 90.8 | 65.7 | 97.7 | 105 | 98.8 | 102 | 92.9 | 97.7 | 98.1 | 94.2 | 92.9 | 102 | > 10 | > 10 |  | > 10 | > 10 | 0.2 | 0 | 3 | 0 | 0 |
| O/N=C/c1ccc(-c2ccc(O)c(F)c2)c(Cl)c1O [FERb-033] | 98.1 | 95.2 | 93.4 | 91.9 | 81.4 | 104 | 101 | 100 | 98.9 | 84.8 | 95.7 | 104 | 100 | 99.8 | 71.1 | 102 | 97.1 | 99.5 | 96.9 | 93.9 | 97.7 | 106 | 98.8 | 103 | 95.7 | > 10 | > 10 |  | > 10 | > 10 | 0.8 | 0.3 | 1.2 | 0 | 0 |
| O=S(=O)(c1cccc2c(Cl)cccc12)N1CCCNCC1 [ML9] | 94.5 | 91.6 | 97.3 | 88 | 87.7 | 110 | 104 | 110 | 99.9 | 98.9 | 96.3 | 96.5 | 90.8 | 93.3 | 74.7 | 95.5 | 93.3 | 96.9 | 102 | 103 | 89 | 96.9 | 87.9 | 96.8 | 94.1 | > 10 | > 10 |  | > 10 | > 10 | 0.1 | 0 | 1.5 | 0 | 0 |
| O=C(O)c1ccc(Nc2ncc3c(n2)-c2ccc(Cl)cc2C(c2c(F)cccc2F)=NC3)cc1 [MLN8054] | 94.4 | 100 | 87 | 82 | 82.5 | 96.2 | 96.2 | 112 | 91.3 | 86.8 | 109 | 108 | 96.7 | 73.2 | 62.3 | 103 | 105 | 100 | 90 | 76.7 | 103 | 97.9 | 104 | 91.7 | 82.7 | > 10 | > 10 |  | > 10 | > 10 | 3.3 | 0.6 | 5.1 | 2 | 1.1 |
| CCOC(=O)c1c(O)nc2cccc3c2c1-c1ccccc1C3=O [NQDI-1] | 89.6 | 103 | 89.7 | 92.9 | 98.3 | 91.5 | 96.8 | 95.7 | 95.2 | 104 | 106 | 102 | 98.4 | 76 | 57.2 | 95.6 | 101 | 102 | 97.7 | 101 | 104 | 103 | 102 | 95.9 | 94 | > 10 | > 10 |  | > 10 | > 10 | 0 | 0 | 5 | 0 | 0 |
